Laboratory results published in ChEMBL document CHEMBL1201862, “PubChem BioAssay data set” (2004).
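Compound exposure: 48 hours, 5 concentrations, 96-well plates. GI50: concentration for 50% inhibition of growth.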 Activity calls are given as the source filed them. Cut-off read from the data, not from the text of the source: active = GI50 up to about 1.1 µM and inactive = higher.

Assays:
Assay in all cases: inhibition of tumour cell growth, NCI panel, 48 h
UO-31 = test system: UO-31
HOP-62 = test system: HOP-62
SNB-19 = test system: SNB-19
SK-MEL-2 = test system: SK-MEL-2
LOX IMVI = test system: LOX IMVI
T47D = test system: T47D
MDA-N = test system: MDA-N
TK-10 = test system: TK-10
SW-620 = test system: SW-620
COLO 205 = test system: COLO 205
MDA-MB-435 = test system: MDA-MB-435
NCI-H226 = test system: NCI-H226
OVCAR-3 = test system: OVCAR-3
MDA-MB-231 = test system: MDA-MB-231
SR = test system: SR
NCI-H460 = test system: NCI-H460
786-0 = test system: 786-0
Hs-578T = test system: Hs-578T
SK-OV-3 = test system: SK-OV-3
NCI/ADR-RES = test system: NCI/ADR-RES

Measured: GI50

C[C@@H](c1ccccc1)C(CC#N)[C@H]1CCC[C@]1(O)C#Cc1ccc2c(c1)OCO2 (stereo not given in full)
inactive: UO-31 14.4 µM | HOP-62 16.8 µM | SNB-19 16.1 µM | SK-MEL-2 17.6 µM | LOX IMVI 18.5 µM | T47D 15.7 µM | MDA-N 16.7 µM | TK-10 16 µM | SW-620 17.9 µM | COLO 205 18.2 µM | MDA-MB-435 16.6 µM | NCI-H226 17.5 µM | OVCAR-3 15.6 µM | MDA-MB-231 17.5 µM | SR 19.7 µM | NCI-H460 16.1 µM | 786-0 17.5 µM | Hs-578T 20.8 µM | SK-OV-3 18.1 µM | NCI/ADR-RES 16 µM
